According to BindingDB's records for doi:10.1124/jpet.105.084343 (University of Rochester, 2005):

Tests used:
[1] = molecular target: Kappa-type opioid receptor (Homo sapiens, UniProt P41145)
[2] = molecular target: Mu-type opioid receptor (Homo sapiens, UniProt P35372)
[3] = molecular target: Delta-type opioid receptor (Homo sapiens, UniProt P41143)
Sequence of Delta-type opioid receptor (P41143 whole entry): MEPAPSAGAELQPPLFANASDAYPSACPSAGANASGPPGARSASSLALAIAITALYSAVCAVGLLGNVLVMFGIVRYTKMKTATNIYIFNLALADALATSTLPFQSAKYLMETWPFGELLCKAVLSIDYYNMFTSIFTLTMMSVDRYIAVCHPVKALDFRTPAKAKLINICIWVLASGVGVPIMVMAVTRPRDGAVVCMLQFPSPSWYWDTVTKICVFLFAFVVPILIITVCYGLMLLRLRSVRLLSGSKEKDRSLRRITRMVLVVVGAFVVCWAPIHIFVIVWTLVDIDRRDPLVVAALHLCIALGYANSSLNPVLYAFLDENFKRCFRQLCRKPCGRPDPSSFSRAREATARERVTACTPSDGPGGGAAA

Sequence of Kappa-type opioid receptor (P41145 whole entry): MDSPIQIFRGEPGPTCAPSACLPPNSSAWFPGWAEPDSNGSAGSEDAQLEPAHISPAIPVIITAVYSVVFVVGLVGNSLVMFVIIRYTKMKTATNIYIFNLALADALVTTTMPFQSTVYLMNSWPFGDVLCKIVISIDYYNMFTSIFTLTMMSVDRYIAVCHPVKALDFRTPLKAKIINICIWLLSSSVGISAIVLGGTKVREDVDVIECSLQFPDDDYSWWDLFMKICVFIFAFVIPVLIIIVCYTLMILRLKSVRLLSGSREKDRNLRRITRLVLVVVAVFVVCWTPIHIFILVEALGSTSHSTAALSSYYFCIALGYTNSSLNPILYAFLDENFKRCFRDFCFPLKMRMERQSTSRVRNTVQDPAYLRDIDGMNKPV
Sequence of Mu-type opioid receptor (P35372 whole entry): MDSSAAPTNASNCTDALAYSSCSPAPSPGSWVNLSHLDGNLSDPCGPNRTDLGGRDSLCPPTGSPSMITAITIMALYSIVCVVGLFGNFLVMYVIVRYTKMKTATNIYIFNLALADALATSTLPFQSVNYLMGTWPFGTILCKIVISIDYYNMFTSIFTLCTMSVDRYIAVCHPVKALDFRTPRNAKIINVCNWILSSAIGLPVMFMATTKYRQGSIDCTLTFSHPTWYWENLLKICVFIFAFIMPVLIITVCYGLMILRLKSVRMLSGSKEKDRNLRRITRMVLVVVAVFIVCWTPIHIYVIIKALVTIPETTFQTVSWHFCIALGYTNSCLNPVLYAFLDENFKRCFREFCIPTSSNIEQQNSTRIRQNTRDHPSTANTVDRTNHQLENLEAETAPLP

Structure (SMILES)	Ki [1]	Ki [2]	Ki [3]
Oc1ccc2c(c1)[C@@]13CCCC[C@H]1C(C2)N(CC1CCC1)CC3 [MCL-101]	79 nM		
O=C(/C=C/C(=O)Oc1ccc2c(c1)[C@]13CCCCC1[C@H](C2)N(CC1CCC1)CC3)Oc1ccc2c(c1)[C@]13CCCCC1[C@H](C2)N(CC1CCC1)CC3 (some centres undefined) [MCL-145]	78 nM	200 nM	9400 nM
